Test results: PMC12171682, “Saarvienin A—A Novel Glycopeptide with Potent Activity against Drug‐Resistant Bacteria” (Angewandte Chemie (International Ed. in English), 2025)
Converted amounts (≈) assume the structure as drawn. Like-named read-outs stand apart in the source and are kept apart here.

Assays:
E. faecalis ATCC 29212 [1] = experiment: microbe, parasite or virus in culture; details: Enterococcus faecalis, ATCC29212, 24 h, read-out: MIC, E. faecalis ATCC29212
[2] = test system: vancomycin‐resistant E. faecium clinical isolates with reduced susceptibility to daptomycin (n = 26); experiment: microbe, parasite or virus in culture; details: Enterococcus faecium; for MIC: 24 h; for MIC50 / MIC90: VRE
[3] = test system: vancomycin‐resistant E. faecium clinical isolates with reduced susceptibility to daptomycin (n = 26); details: broth microdilution, MHB II, daptomycin with 50 µg/mL Ca2+, mean of two independent experiments
E. faecalis ATCC 29212 [4] = details: reference strain in Table S5; broth microdilution, MHB II, 37 °C, 24 h; daptomycin with 50 µg/mL Ca2+; mean of two independent experiments
[5] = read-out: MIC, Enterococcus faecium isolate 1
[6] = read-out: MIC, Enterococcus faecium isolate 2
[7] = read-out: MIC, Enterococcus faecium isolate 3
[8] = read-out: MIC, Enterococcus faecium isolate 4
[9] = read-out: MIC, Enterococcus faecium isolate 5
[10] = read-out: MIC, Enterococcus faecium isolate 6
[11] = read-out: MIC, Enterococcus faecium isolate 7
[12] = read-out: MIC, Enterococcus faecium isolate 8
[13] = read-out: MIC, Enterococcus faecium isolate 9
[14] = read-out: MIC, Enterococcus faecium isolate 10
[15] = read-out: MIC, Enterococcus faecium isolate 11
[16] = read-out: MIC, Enterococcus faecium isolate 12
[17] = read-out: MIC, Enterococcus faecium isolate 13
[18] = read-out: MIC, Enterococcus faecium isolate 14
[19] = read-out: MIC, Enterococcus faecium isolate 15
[20] = read-out: MIC, Enterococcus faecium isolate 16
[21] = read-out: MIC, Enterococcus faecium isolate 17
[22] = read-out: MIC, Enterococcus faecium isolate 18
[23] = read-out: MIC, Enterococcus faecium isolate 19
[24] = read-out: MIC, Enterococcus faecium isolate 20
[25] = read-out: MIC, Enterococcus faecium isolate 21
[26] = read-out: MIC, Enterococcus faecium isolate 22
[27] = read-out: MIC, Enterococcus faecium isolate 23
[28] = read-out: MIC, Enterococcus faecium isolate 24
[29] = read-out: MIC, Enterococcus faecium isolate 25
[30] = read-out: MIC, Enterococcus faecium isolate 26
[31] = 26 VRE E. faecium clinical isolates

For `CNC(C)C1CCC(N)C(OC2C(N)CC(N)C(OC3OCC(C)(O)C(NC)C3O)C2O)O1` (stereo not drawn) [Gentamicin], the MIC (E. faecalis ATCC 29212 [1]) was 8 µg/mL (≈ 16.8 µM), the MIC [2, 5] was greater than 64 µg/mL and the MIC [2, 6] was greater than 64 µg/mL. The MIC [2, 7] was 64 µg/mL (≈ 134 µM), the MIC [2, 8] was greater than 64 µg/mL and the MIC [2, 9] was greater than 64 µg/mL. For the same compound, the MIC [2, 10] was greater than 64 µg/mL, the MIC [2, 11] was greater than 64 µg/mL and the MIC [2, 12] was greater than 64 µg/mL. The MIC [2, 13] was greater than 64 µg/mL, the MIC [2, 14] was greater than 64 µg/mL and the MIC [2, 15] was greater than 64 µg/mL. For the same compound, the MIC [2, 16] was greater than 64 µg/mL, the MIC [2, 17] was greater than 64 µg/mL and the MIC [2, 18] was greater than 64 µg/mL. The MIC [2, 19] was greater than 64 µg/mL, the MIC [2, 20] was greater than 64 µg/mL and the MIC [2, 21] was greater than 64 µg/mL. The MIC [2, 22] was greater than 64 µg/mL, the MIC [2, 23] was greater than 64 µg/mL and the MIC [2, 24] was greater than 64 µg/mL. It also gave an MIC [2, 25] greater than 64 µg/mL, an MIC [2, 26] greater than 64 µg/mL and an MIC [2, 27] greater than 64 µg/mL. For the same compound, the MIC [2, 28] was greater than 64 µg/mL, the MIC [2, 29] was greater than 64 µg/mL and the MIC [2, 30] was greater than 64 µg/mL. It also gave an MIC50 [2] greater than 64 µg/mL and an MIC90 [2] greater than 64 µg/mL.

In the case of `CC(=O)NC[C@H]1CN(c2ccc(N3CCOCC3)c(F)c2)C(=O)O1` [Linezolid], the MIC (E. faecalis ATCC 29212 [1]) is reported as 2 µg/mL (≈ 5.93 µM), the “MIC Range” value [3, 31] is reported as 2 to 4 µg/mL and the MIC [2, 5] is reported as 2 µg/mL (≈ 5.93 µM). The MIC [2, 6] was 2 µg/mL (≈ 5.93 µM), the MIC [2, 7] was 4 µg/mL (≈ 11.9 µM) and the MIC [2, 8] was 2 µg/mL (≈ 5.93 µM). For the same compound, the MIC [2, 9] was 4 µg/mL (≈ 11.9 µM), the MIC [2, 10] was 4 µg/mL (≈ 11.9 µM) and the MIC [2, 11] was 2 µg/mL (≈ 5.93 µM). For the same compound, the MIC [2, 12] was 2 µg/mL (≈ 5.93 µM), the MIC [2, 13] was 2 µg/mL (≈ 5.93 µM) and the MIC [2, 14] was 2 µg/mL (≈ 5.93 µM). The MIC [2, 15] was 2 µg/mL (≈ 5.93 µM), the MIC [2, 16] was 4 µg/mL (≈ 11.9 µM) and the MIC [2, 17] was 4 µg/mL (≈ 11.9 µM). The MIC [2, 18] was 4 µg/mL (≈ 11.9 µM), the MIC [2, 19] was 4 µg/mL (≈ 11.9 µM) and the MIC [2, 20] was 4 µg/mL (≈ 11.9 µM). The MIC [2, 21] was 2 µg/mL (≈ 5.93 µM), the MIC [2, 22] was 4 µg/mL (≈ 11.9 µM) and the MIC [2, 23] was 4 µg/mL (≈ 11.9 µM). It also gave an MIC [2, 24] of 2 µg/mL (≈ 5.93 µM), an MIC [2, 25] of 2 µg/mL (≈ 5.93 µM) and an MIC [2, 26] of 4 µg/mL (≈ 11.9 µM). The MIC [2, 27] was 4 µg/mL (≈ 11.9 µM), the MIC [2, 28] was 4 µg/mL (≈ 11.9 µM) and the MIC [2, 29] was 4 µg/mL (≈ 11.9 µM). It also gave an MIC [2, 30] of 2 µg/mL (≈ 5.93 µM), an MIC50 [2] of 4 µg/mL (≈ 11.9 µM) and an MIC90 [2] of 4 µg/mL (≈ 11.9 µM).

For teicoplanin, the “MIC, E. faecalis ATCC29212” value (E. faecalis ATCC 29212 [4]) was 0.5 µg/mL, the MIC50 [3, 31] was 64 µg/mL and the “MIC, Enterococcus faecium isolate 1” value ([3]; clinical isolate 1, 37 °C, 24 h) was 64 µg/mL. For the same compound, the “MIC, Enterococcus faecium isolate 2” value ([3]; clinical isolate 2, 37 °C, 24 h) was 32 µg/mL, the “MIC, Enterococcus faecium isolate 3” value ([3]; clinical isolate 3, 37 °C, 24 h) was 2 µg/mL and the “MIC, Enterococcus faecium isolate 4” value ([3]; clinical isolate 4, 37 °C, 24 h) was 2 µg/mL. For the same compound, the “MIC, Enterococcus faecium isolate 5” value ([3]; clinical isolate 5, 37 °C, 24 h) was greater than 64 µg/mL, the “MIC, Enterococcus faecium isolate 6” value ([3]; clinical isolate 6, 37 °C, 24 h) was 64 µg/mL and the “MIC, Enterococcus faecium isolate 7” value ([3]; clinical isolate 7, 37 °C, 24 h) was 32 µg/mL. For the same compound, the “MIC, Enterococcus faecium isolate 8” value ([3]; clinical isolate 8, 37 °C, 24 h) was 64 µg/mL, the “MIC, Enterococcus faecium isolate 9” value ([3]; clinical isolate 9, 37 °C, 24 h) was greater than 64 µg/mL and the “MIC, Enterococcus faecium isolate 10” value ([3]; clinical isolate 10, 37 °C, 24 h) was greater than 64 µg/mL. For the same compound, the “MIC, Enterococcus faecium isolate 11” value ([3]; clinical isolate 11, 37 °C, 24 h) was 32 µg/mL, the “MIC, Enterococcus faecium isolate 12” value ([3]; clinical isolate 12, 37 °C, 24 h) was 64 µg/mL and the “MIC, Enterococcus faecium isolate 13” value ([3]; clinical isolate 13, 37 °C, 24 h) was 32 µg/mL. The “MIC, Enterococcus faecium isolate 14” value ([3]; clinical isolate 14, 37 °C, 24 h) was 32 µg/mL, the “MIC, Enterococcus faecium isolate 15” value ([3]; clinical isolate 15, 37 °C, 24 h) was 64 µg/mL and the “MIC, Enterococcus faecium isolate 16” value ([3]; clinical isolate 16, 37 °C, 24 h) was 32 µg/mL. The “MIC, Enterococcus faecium isolate 17” value ([3]; clinical isolate 17, 37 °C, 24 h) was 64 µg/mL, the “MIC, Enterococcus faecium isolate 18” value ([3]; clinical isolate 18, 37 °C, 24 h) was 32 µg/mL and the “MIC, Enterococcus faecium isolate 19” value ([3]; clinical isolate 19, 37 °C, 24 h) was 64 µg/mL. The “MIC, Enterococcus faecium isolate 20” value ([3]; clinical isolate 20, 37 °C, 24 h) was 64 µg/mL, the “MIC, Enterococcus faecium isolate 21” value ([3]; clinical isolate 21, 37 °C, 24 h) was greater than 64 µg/mL and the “MIC, Enterococcus faecium isolate 22” value ([3]; clinical isolate 22, 37 °C, 24 h) was 64 µg/mL. The “MIC, Enterococcus faecium isolate 23” value ([3]; clinical isolate 23, 37 °C, 24 h) was greater than 64 µg/mL, the “MIC, Enterococcus faecium isolate 24” value ([3]; clinical isolate 24, 37 °C, 24 h) was greater than 64 µg/mL and the “MIC, Enterococcus faecium isolate 25” value ([3]; clinical isolate 25, 37 °C, 24 h) was greater than 64 µg/mL. For the same compound, the “MIC, Enterococcus faecium isolate 26” value ([3]; clinical isolate 26, 37 °C, 24 h) was greater than 64 µg/mL.
